Measured values taken from doi:10.1101/2022.10.08.511406v1 (biorxiv, 2022).

Target: T1, YTH domain of YTHDF1 (Homo sapiens, UniProt Q9BYJ9)
T1 sequence (Q9BYJ9 361-559): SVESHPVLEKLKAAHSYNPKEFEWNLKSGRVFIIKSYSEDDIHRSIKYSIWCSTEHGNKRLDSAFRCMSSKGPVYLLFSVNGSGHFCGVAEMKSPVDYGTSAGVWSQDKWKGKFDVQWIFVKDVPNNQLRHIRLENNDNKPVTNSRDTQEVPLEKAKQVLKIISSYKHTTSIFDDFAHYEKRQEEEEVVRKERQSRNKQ
Assay: SPR competition
Assay type: binding

IC50: 13.8 µM
SMILES: CCCCCNC(=N)N/N=C/c1c[nH]c2ccc(OC)cc12 [tegaserod]
